Data from PubChem BioAssay AID328 (DTP/NCI, 2004).
“And” between values parts separate entries of the source, which are not always exact repeats. Equal values may be shown once. Inconclusive results and toxic doses are left out. Non-standard residues stand in square brackets, D forms with d. Residues, ends and D or L forms follow the SMILES beside them. ξ: configuration not given here. *: point of attachment. Boc = CC(C)(C)OC(=O)*; ξP = O=C(O)C1CCCN1

Test system: BDF1 mice, P388 leukemia ip, median survival T/C
Test: NCI In Vivo Anticancer Drug Screen. Data for tumor model P388 Leukemia (intraperitoneal) in B6D2F1 (BDF1) mice
Conditions: endpoint: median survival time, higher = longer survival
Procedure, shortened: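 Transplantable tumour in mice; compound vs vehicle dosing; survival scored; ratio of treated to control reported.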

[1] = dose: 0.78 mg/kg/injection, schedule: Q01DX009 (ip), vehicle: Klucel (hydroxypropylcellulose) (HPC)
[2] = dose: 1.56 mg/kg/injection, schedule: Q01DX009 (ip), vehicle: Klucel (hydroxypropylcellulose) (HPC)
[3] = dose: 25.0 mg/kg/injection, schedule: Q01DX009 (ip), vehicle: saline
[4] = dose: 100.0 mg/kg/injection, schedule: Q01DX009 (ip), vehicle: saline
[5] = dose: 100.0 mg/kg/injection, schedule: Q04DX003 (ip), vehicle: saline
[6] = dose: 200.0 mg/kg/injection, schedule: Q04DX003 (ip), vehicle: saline
[7] = dose: 100.0 mg/kg/injection, schedule: Q01DX009 (ip), vehicle: saline with Tween-80
[8] = dose: 400.0 mg/kg/injection, schedule: Q04DX003 (ip), vehicle: saline
[9] = dose: 25.0 mg/kg/injection, schedule: Q01DX009 (ip), vehicle: saline with Tween-80
[10] = dose: 50.0 mg/kg/injection, schedule: Q01DX009 (ip), vehicle: Klucel (hydroxypropylcellulose) (HPC)
[11] = dose: 50.0 mg/kg/injection, schedule: Q04DX003 (ip), vehicle: Klucel (hydroxypropylcellulose) (HPC)

## CCOP(=O)(OCC)ON1C(=O)c2cccc3cccc(c23)C1=O
[1]
  T/C: 97 % of control
[2]
  T/C: 99 % of control

## O=C(O)c1ccc(N2C(=O)C=CC2=O)cc1 (tested in a mixture with another compound)
dose: 0.39 mg/kg/injection, schedule: Q01DX009 (ip), vehicle: Klucel (hydroxypropylcellulose) (HPC)
  T/C: 95 % of control
[1]
  T/C: 108 % of control
dose: 1.25 mg/kg/injection, schedule: Q01DX001 (ip), vehicle: Klucel (hydroxypropylcellulose) (HPC)
  T/C: 100 % of control
[2]
  T/C: 95 % of control
dose: 2.5 mg/kg/injection, schedule: Q01DX001 (ip), vehicle: Klucel (hydroxypropylcellulose) (HPC)
  T/C: 104 % of control
dose: 3.12 mg/kg/injection, schedule: Q01DX009 (ip), vehicle: Klucel (hydroxypropylcellulose) (HPC)
  T/C: 110 % of control
dose: 4.6 mg/kg/injection, schedule: Q04DX003 (ip), vehicle: Klucel (hydroxypropylcellulose) (HPC)
  T/C: 95 % of control
dose: 5.0 mg/kg/injection, schedule: Q01DX001 (ip), vehicle: Klucel (hydroxypropylcellulose) (HPC)
  T/C: 104 % of control
dose: 7.0 mg/kg/injection, schedule: Q04DX003 (ip), vehicle: Klucel (hydroxypropylcellulose) (HPC)
  T/C: 95 % of control
dose: 10.0 mg/kg/injection, schedule: Q04DX003 (ip), vehicle: Klucel (hydroxypropylcellulose) (HPC)
  T/C: 100 % of control

## O=C(Nc1ccc(S(=O)(=O)O)cc1)c1ccc([N+](=O)[O-])cc1
[3]
  T/C: 100 % of control
dose: 50.0 mg/kg/injection, schedule: Q01DX009 (ip), vehicle: saline
  T/C: 100 % of control
[4]
  T/C: 100 % of control
[5]
  T/C: 100 % of control
dose: 176.0 mg/kg/injection, schedule: Q04DX003 (ip), vehicle: saline with Tween-80
  T/C: 100 % of control
[6]
  T/C: 100 % of control
dose: 264.0 mg/kg/injection, schedule: Q04DX003 (ip), vehicle: saline with Tween-80
  T/C: 110 % of control
dose: 264.0 mg/kg/injection, schedule: Q04DX003 (ip), vehicle: saline
  T/C: 95 % of control and 120 % of control
dose: 400.0 mg/kg/injection, schedule: Q04DX003 (ip), vehicle: saline with Tween-80
  T/C: 100 % of control

## CC1(C)N=C(N)N=C(N)N1c1ccc(OCCOc2ccc(NC(=O)CBr)cc2)cc1
dose: 2.5 mg/kg/injection, schedule: Q01DX009 (ip), vehicle: saline with Tween-80
  T/C: 95 % of control
dose: 5.0 mg/kg/injection, schedule: Q01DX009 (ip), vehicle: saline with Tween-80
  T/C: 112 % of control
[7]
  T/C: 172 % of control
[4]
  T/C: 230 % of control
dose: 100.0 mg/kg/injection, schedule: Q04DX003 (ip), vehicle: saline sonified
  T/C: 165 % of control and 170 % of control
dose: 150.0 mg/kg/injection, schedule: Q01DX009 (ip), vehicle: saline with Tween-80
  T/C: 218 % of control
dose: 150.0 mg/kg/injection, schedule: Q04DX003 (ip), vehicle: saline sonified
  T/C: 165 % of control
dose: 200.0 mg/kg/injection, schedule: Q01DX009 (ip), vehicle: saline
  T/C: 90 % of control
dose: 200.0 mg/kg/injection, schedule: Q04DX003 (ip), vehicle: saline sonified
  T/C: 200 % of control
dose: 400.0 mg/kg/injection, schedule: Q04DX003 (ip), vehicle: saline sonified
  T/C: 245 % of control

## O=S(=O)(O)O.[N-]=C(N)/N=C(\[NH-])N.[N-]=C(N)/N=C(\[NH-])N.[N-]=C(N)NC(=[N-])N.[Rh+3]
dose: 6.25 mg/kg/injection, schedule: Q01DX009 (ip), vehicle: saline
  T/C: 104 % of control
dose: 12.5 mg/kg/injection, schedule: Q01DX009 (ip), vehicle: saline
  T/C: 95 % of control
dose: 12.5 mg/kg/injection, schedule: Q04DX003 (ip), vehicle: saline
  T/C: 100 % of control
[3]
  T/C: 119 % of control
dose: 25.0 mg/kg/injection, schedule: Q04DX003 (ip), vehicle: saline
  T/C: 109 % of control
dose: 50.0 mg/kg/injection, schedule: Q04DX003 (ip), vehicle: saline
  T/C: 118 % of control

## Nc1ccn(C2OC(COC3CCCCO3)C(OC3CCCCO3)C2OC2CCCCO2)c(=O)n1 (centres undefined)
dose: 50.0 mg/kg/injection, schedule: Q01DX007 (ip), vehicle: saline
  T/C: 108 % of control
dose: 100.0 mg/kg/injection, schedule: Q01DX007 (ip), vehicle: saline
  T/C: 94 % of control
[5]
  T/C: 90 % of control
dose: 200.0 mg/kg/injection, schedule: Q01DX007 (ip), vehicle: saline
  T/C: 94 % of control
[6]
  T/C: 86 % of control
dose: 400.0 mg/kg/injection, schedule: Q01DX007 (ip), vehicle: saline
  T/C: 100 % of control
[8]
  T/C: 104 % of control

## CCN(CC)CCCC(C)Nc1ncnc2oc(C)c(C)c12 (centres undefined)
dose: 6.25 mg/kg/injection, schedule: Q01DX009 (ip), vehicle: saline with Tween-80
  T/C: 95 % of control
dose: 12.5 mg/kg/injection, schedule: Q01DX009 (ip), vehicle: saline with Tween-80
  T/C: 100 % of control
[9]
  T/C: 100 % of control

## COC(=O)CNC(=O)C1CCCN1C(=O)OC(C)(C)C (centres undefined) (Boc-[ξP]-Gly-OMe)
[5]
  T/C: 100 % of control
[6]
  T/C: 105 % of control
[8]
  T/C: 95 % of control

## CC(=O)CC(C)=O.CC(=O)CC(C)=O.[NH-]C1CCCCC1.[NH-]C1CCCCC1.[Ni+2]
dose: 19.0 mg/kg/injection, schedule: Q04DX003 (ip), vehicle: saline with Tween-80
  T/C: 104 % of control
dose: 20.0 mg/kg/injection, schedule: Q04DX003 (ip), vehicle: saline
  T/C: 100 % of control
dose: 37.5 mg/kg/injection, schedule: Q04DX003 (ip), vehicle: saline with Tween-80
  T/C: 118 % of control
dose: 40.0 mg/kg/injection, schedule: Q04DX003 (ip), vehicle: saline
  T/C: 112 % of control

## NN(C(=O)c1ccccc1)c1ccccc1
dose: 12.5 mg/kg/injection, schedule: Q04DX003 (ip), vehicle: Klucel (hydroxypropylcellulose) (HPC)
  T/C: 100 % of control
dose: 25.0 mg/kg/injection, schedule: Q01DX009 (ip), vehicle: Klucel (hydroxypropylcellulose) (HPC)
  T/C: 110 % of control
dose: 25.0 mg/kg/injection, schedule: Q04DX003 (ip), vehicle: Klucel (hydroxypropylcellulose) (HPC)
  T/C: 100 % of control
[10]
  T/C: 100 % of control
[11]
  T/C: 104 % of control
dose: 75.0 mg/kg/injection, schedule: Q04DX003 (ip), vehicle: Klucel (hydroxypropylcellulose) (HPC)
  T/C: 104 % of control
dose: 115.0 mg/kg/injection, schedule: Q04DX003 (ip), vehicle: Klucel (hydroxypropylcellulose) (HPC)
  T/C: 104 % of control
dose: 170.0 mg/kg/injection, schedule: Q04DX003 (ip), vehicle: Klucel (hydroxypropylcellulose) (HPC)
  T/C: 109 % of control
dose: 255.0 mg/kg/injection, schedule: Q04DX003 (ip), vehicle: Klucel (hydroxypropylcellulose) (HPC)
  T/C: 105 % of control
dose: 385.0 mg/kg/injection, schedule: Q04DX003 (ip), vehicle: Klucel (hydroxypropylcellulose) (HPC)
  T/C: 110 % of control

## COCC(O)CN1CCN(c2ccccc2C)CC1 (centres undefined)
[9]
  T/C: 87 % of control
dose: 50.0 mg/kg/injection, schedule: Q01DX009 (ip), vehicle: saline with Tween-80
  T/C: 95 % of control
[7]
  T/C: 91 % of control

## C=C(C)C12OC3(c4ccccc4)OC1C1C4OC4(CO)C(O)C4(O)C(=O)C(C)=CC4C1(O3)C(C)C2OC(=O)/C=C/c1ccccc1 (centres undefined)
dose: 6.3 micrograms/kg/injection, schedule: Q## X009 (ip), vehicle: saline + alcohol
  T/C: 114 % of control
dose: 12.5 micrograms/kg/injection, schedule: Q## X009 (ip), vehicle: saline + alcohol
  T/C: 110 % of control
dose: 25.0 micrograms/kg/injection, schedule: Q## X009 (ip), vehicle: saline + alcohol
  T/C: 118 % of control
dose: 50.0 micrograms/kg/injection, schedule: Q## X009 (ip), vehicle: saline + alcohol
  T/C: 109 % of control
dose: 100.0 micrograms/kg/injection, schedule: Q## X009 (ip), vehicle: saline + alcohol
  T/C: 159 % of control
dose: 200.0 micrograms/kg/injection, schedule: Q## X009 (ip), vehicle: saline + alcohol
  T/C: 173 % of control

## C#CCOC(=O)Nc1ccccc1Cl
[10]
  T/C: 110 % of control
[11]
  T/C: 100 % of control
dose: 100.0 mg/kg/injection, schedule: Q01DX009 (ip), vehicle: Klucel (hydroxypropylcellulose) (HPC)
  T/C: 100 % of control
dose: 100.0 mg/kg/injection, schedule: Q04DX003 (ip), vehicle: Klucel (hydroxypropylcellulose) (HPC)
  T/C: 109 % of control
dose: 200.0 mg/kg/injection, schedule: Q01DX009 (ip), vehicle: Klucel (hydroxypropylcellulose) (HPC)
  T/C: 100 % of control
dose: 200.0 mg/kg/injection, schedule: Q04DX003 (ip), vehicle: Klucel (hydroxypropylcellulose) (HPC)
  T/C: 109 % of control
